The test system of the test is zebrafish larvae. Description: Light- and Optovin-induced motor response assay. It is filed as in vivo, zebrafish (Danio rerio). The note with it: 10 μM optovin, wild-type zebrafish, pulsed violet light. On the procedure: Light- and Optovin-induced motor response assay. Zebrafish larvae at 3 dpf were arrayed in 96-well plates and treated with 10 μM optovin (Fisher Scientific, cat #490110) in a total volume of 200 μL E3 media. Treated larvae were incubated at […] for 1 h in dark. […] Movement of the larvae was tracked and quantitated following 5×1s pulse of violet light after 10 s interval in the dark.
Identifying the protein targets of small molecules remains one of the major challenges in chemical biology and pharmacology. Herein it was hypothesized that MIC-Drop could be used to identify the targets of small molecules that result in complex behavioral phenotypes in the zebrafish. As proof-of-principle, optovin was utilized, a small molecule agonist of the trpa1b channel that allows photo-activatable behavioral modifications in zebrafish. Droplets targeting the trpa1b channel were spiked into a collection of droplets containing scrambled gRNAs in a 1:20 ratio (FIG. 7B). Droplet-injected embryos were arrayed into 96-well plates, treated with optovin and exposed to violet light flashes while simultaneously recording embryo movement. […] Thus, the MIC-Drop platform was able to be used to identify the target of optovin from among a library of non-target candidates.

“Also recorded” adds a separate entry of the source.

Take `Cc1cc(/C=C2/SC(=S)NC2=O)c(C)n1-c1cccnc1` [optovin]: the “motor response of zebrafish after treatment” value is reported as “light-dependent motor response; also recorded: light-dependent motion response”.
